Experimental data taken from ChEMBL document CHEMBL3390848, “Affinity selection and sequence-activity relationships of HIV-1 membrane fusion inhibitors directed at the drug-resistant variants” (Medchemcomm, 2010).
Residues, ends and D or L forms follow the SMILES beside them.

Assays:
[1] = system: Human immunodeficiency virus 1; assay: Binding affinity to HIV1 His-tagged N-terminal heptad repeat of envelope glycoprotein gp41 assessed as recovery of N36-drug complex at 0.6 uM after 2 hrs by LC-MS analysis
[2] = system: Human immunodeficiency virus 1; assay: Binding affinity to HIV1 His-tagged N-terminal heptad repeat of envelope glycoprotein gp41 assessed as recovery of N36-drug complex at 1 uM after 2 hrs by LC-MS analysis
[3] = system: Human immunodeficiency virus 1; assay: Binding affinity to HIV1 His-tagged N-terminal heptad repeat of envelope glycoprotein gp41 assessed as recovery of N36-drug complex at 6 uM after 2 hrs by LC-MS analysis
[4] = system: Human immunodeficiency virus 1; assay: Antiviral activity against HIV1 NL4-3 harboring gp41 D36G mutant infected in human HeLa cells expressing CD4-LTR-beta-gal assessed as inhibition of viral replication after 48 hrs by MAGI assay; assay type: functional, organism-based
[5] = system: Envelope glycoprotein gp160 (Human immunodeficiency virus 1), Q72502 [V38A]; assay: Binding affinity to HIV1 His-tagged N-terminal heptad repeat of envelope glycoprotein gp41 assessed as recovery of N36 V38A mutant-drug complex after 2 hrs by LC-MS analysis; design: concentration or dose not given beside the values
[6] = system: Human immunodeficiency virus 1; assay: Binding affinity to HIV1 His-tagged N-terminal heptad repeat of envelope glycoprotein gp41 assessed as recovery of N36 N43D mutant-drug complex after 2 hrs by LC-MS analysis; design: concentration or dose not given beside the values
[7] = system: Human immunodeficiency virus 1; assay: Binding affinity to HIV1 His-tagged N-terminal heptad repeat of envelope glycoprotein gp41 assessed as recovery of N36-drug complex at 10 uM after 2 hrs by LC-MS analysis
[8] = system: Envelope glycoprotein gp160 (Human immunodeficiency virus 1), Q72502 [V38A]; assay: Thermal stability of HIV1 envelope glycoprotein gp41 His-tagged N-terminal heptad repeat N36 V38A mutant-drug complex assessed as thermal unfolding transition state by measuring molar ellipticity at 4 to 90 degC by circular dichroic spectra analysis
[9] = system: Human immunodeficiency virus 1; assay: Thermal stability of HIV1 envelope glycoprotein gp41 His-tagged N-terminal heptad repeat N36-drug complex assessed as thermal unfolding transition state by measuring molar ellipticity at 4 to 90 degC by circular dichroic spectra analysis
[10] = system: Human immunodeficiency virus 1; assay: Thermal stability of HIV1 envelope glycoprotein gp41 His-tagged N-terminal heptad repeat N36 N43D mutant-drug complex assessed as thermal unfolding transition state by measuring molar ellipticity at 4 to 90 degC by circular dichroic spectra analysis
[11] = system: Human immunodeficiency virus 1; assay: Binding affinity to HIV1 His-tagged N-terminal heptad repeat of envelope glycoprotein gp41 assessed as recovery of N36-drug complex after 2 hrs by LC-MS analysis; design: concentration or dose not given beside the values

SMILES	Activity [1]	Activity [2]	Activity [3]	EC50 [4]	Activity [5]	Activity [6]	Activity [7]	Tm [8]	Tm [9]	Tm [10]	Activity [11]
CC[C@H](C)[C@H](NC(=O)[C@H](CC(C)C)NC(=O)[C@H](CCC(=O)O)NC(=O)[C@H](CCC(=O)O)NC(=O)[C@@H](NC(=O)[C@H](CCCCN)NC(=O)[C@H](CCCCN)NC(=O)[C@@H](NC(=O)[C@H](Cc1ccc(O)cc1)NC(=O)[C@H](CCC(=O)O)NC(=O)[C@H](CCC(=O)O)NC(=O)[C@@H](NC(=O)[C@H](CCCCN)NC(=O)[C@H](CCCCN)NC(=O)[C@H](CC(=O)O)NC(=O)[C@H](Cc1c[nH]c2ccccc12)NC(=O)[C@H](CCC(=O)O)NC(=O)[C@H](CCC(=O)O)NC(=O)[C@H](Cc1c[nH]c2ccccc12)NC(C)=O)[C@@H](C)CC)[C@@H](C)O)[C@@H](C)CC)C(=O)N[C@@H](CCCCN)C(=O)N[C@@H](CCCCN)C(=O)N[C@@H](Cc1c[nH]c2ccccc12)C(=O)N[C@@H](CCC(=O)O)C(=O)N[C@@H](CCC(=O)O)C(=O)N[C@@H](CCC(N)=O)C(=O)N[C@@H](CCC(N)=O)C(=O)N[C@@H](CCCCN)C(=O)N[C@@H](CCCCN)C(=O)N[C@@H](CC(N)=O)C(=O)N[C@@H](CCC(=O)O)C(=O)N[C@@H](CCC(=O)O)C(=O)N[C@@H](CCC(=O)O)C(=O)N[C@@H](CC(C)C)C(=O)N[C@@H](CCCCN)C(=O)N[C@@H](CCCCN)C(N)=O (Ac-WEEWDKKIEEYTKKIEELIKKWEEQQKKNEEELKK-NH2)	6.2%	0.9%	0.3%	3.1 nM	1%	2.4%	0.5%	64.6 °C	66.4 °C	66 °C	–
CC[C@H](C)[C@H](NC(=O)[C@H](CC(C)C)NC(=O)[C@H](CCC(=O)O)NC(=O)[C@H](CCC(=O)O)NC(=O)[C@@H](NC(=O)[C@H](CCCCN)NC(=O)[C@H](CCCCN)NC(=O)[C@@H](NC(=O)[C@H](Cc1ccc(O)cc1)NC(=O)[C@H](CCC(=O)O)NC(=O)[C@H](CCC(=O)O)NC(=O)[C@@H](NC(=O)[C@H](CCCCN)NC(=O)[C@H](CCCCN)NC(=O)[C@H](CC(=O)O)NC(=O)[C@H](Cc1c[nH]c2ccccc12)NC(=O)[C@H](CCC(=O)O)NC(=O)[C@H](CCC(=O)O)NC(=O)[C@H](Cc1c[nH]c2ccccc12)NC(C)=O)[C@@H](C)CC)[C@@H](C)O)[C@@H](C)CC)C(=O)N[C@@H](CCCCN)C(=O)N[C@@H](CCCCN)C(=O)N[C@@H](CO)C(=O)N[C@@H](CCC(=O)O)C(=O)N[C@@H](CCC(=O)O)C(=O)N[C@@H](CCC(N)=O)C(=O)N[C@@H](CCC(N)=O)C(=O)N[C@@H](CCCCN)C(=O)N[C@@H](CCCCN)C(=O)N[C@@H](CC(N)=O)C(=O)N[C@@H](CCC(=O)O)C(=O)N[C@@H](CCC(=O)O)C(=O)N[C@@H](CCC(=O)O)C(=O)N[C@@H](CC(C)C)C(=O)N[C@@H](CCCCN)C(=O)N[C@@H](CCCCN)C(N)=O (Ac-WEEWDKKIEEYTKKIEELIKKSEEQQKKNEEELKK-NH2)	5.8%	11.5%	19.2%	1 nM	11.8%	10.9%	22.8%	72.6 °C	81.6 °C	69.9 °C	10.1%
